The target of assay [1] is T1, recombinant human arginase 1 (Homo sapiens, UniProt P05089).
T1 construct: purchased Biolegend 552502
T1 sequence (P05089 1-322): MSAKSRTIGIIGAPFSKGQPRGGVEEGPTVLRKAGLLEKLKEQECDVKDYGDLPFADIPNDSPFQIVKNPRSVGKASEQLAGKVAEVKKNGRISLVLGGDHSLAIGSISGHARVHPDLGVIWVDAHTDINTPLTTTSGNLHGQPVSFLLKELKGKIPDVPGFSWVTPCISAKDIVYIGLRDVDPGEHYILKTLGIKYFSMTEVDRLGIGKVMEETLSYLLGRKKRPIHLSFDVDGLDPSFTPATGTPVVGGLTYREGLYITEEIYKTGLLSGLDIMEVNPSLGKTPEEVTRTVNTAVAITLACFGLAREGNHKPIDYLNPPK
The assay is described as follows: Human arginase activity assay (urea measurement), arginase 1. It counts as biochemical. The following applies: recombinant human arginase 1, pH 7.4, 37° C., 60 min; * = value for the most potent diastereoisomer or the mixture of diastereoisomers; read-out: Activity Class (ARG I). In short, it runs like this: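 Arginase activity was measured as urea formed from L-arginine over 60 min at 37 °C. Reaction stopped with oPA/NED acidic reagent and absorbance read at 530 nm after 20 min colour development. Values were background-subtracted and normalised to no-compound activity, and IC50 was derived from percent-inhibition concentration-response regression.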

Assay [2] addresses T2, recombinant human arginase 2 (Homo sapiens, UniProt P78540).
T2 construct: made in house; host or cells: CHO
T2 sequence (P78540 23-354): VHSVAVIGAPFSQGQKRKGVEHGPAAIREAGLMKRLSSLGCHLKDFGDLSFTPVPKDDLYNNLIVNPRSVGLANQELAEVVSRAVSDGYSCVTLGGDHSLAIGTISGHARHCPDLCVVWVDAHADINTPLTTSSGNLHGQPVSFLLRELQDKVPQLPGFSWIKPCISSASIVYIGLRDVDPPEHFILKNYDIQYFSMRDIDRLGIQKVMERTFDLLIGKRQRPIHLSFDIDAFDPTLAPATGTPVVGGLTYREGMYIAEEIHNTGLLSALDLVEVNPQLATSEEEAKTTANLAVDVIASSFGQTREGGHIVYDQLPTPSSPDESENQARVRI
Kind of assay: Human arginase activity assay (urea measurement), arginase 2. The class given is biochemical. The following applies: for selected examples class estimated from % of inhibition at 1 μM and 100 μM, * = most potent diastereoisomer or mixture of diastereoisomers, read-out: Activity Class (ARG II). The essentials:
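Recombinant CHO-expressed human arginase 2 converted 20 mM L-arginine with 150 μM MnCl2 in phosphate buffer pH 7.4 for 60 min at 37 °C. Urea was measured colorimetrically at 530 nm after background subtraction, and IC50 fitted. Some compounds were classed by % inhibition at 1 μM and 100 μM.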

The target in assay [3] is T3, intracellular arginase in macrophages isolated from murine bone marrow (BMDM) (Mus musculus, UniProt Q61176).
T3 construct: endogenous in cells; host or cells: primary bone marrow derived macrophages from Balb/c mice, M-CSF and IL-4 treated
T3 sequence (Q61176 1-323): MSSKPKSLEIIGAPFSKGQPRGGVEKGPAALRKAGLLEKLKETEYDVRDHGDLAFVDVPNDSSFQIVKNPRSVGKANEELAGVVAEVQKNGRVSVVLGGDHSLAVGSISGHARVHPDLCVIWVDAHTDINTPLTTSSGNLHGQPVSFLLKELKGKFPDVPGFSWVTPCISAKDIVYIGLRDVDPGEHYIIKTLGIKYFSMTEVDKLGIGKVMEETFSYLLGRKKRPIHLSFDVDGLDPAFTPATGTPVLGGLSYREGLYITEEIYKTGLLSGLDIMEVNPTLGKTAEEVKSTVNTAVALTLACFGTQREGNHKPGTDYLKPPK
The assay is described as follows: Cell-based assay: intracellular arginase in bone marrow derived macrophages (BMDM), urea level. Also on record: species or system Balb/c mice. The following applies: murine BMDM with M-CSF and IL-4, urea measured 24 hours after compound; * = most potent diastereoisomer or mixture of diastereoisomers; read-out: Activity Class (BMDM). As to the method: Efficacy of Selected Examples Towards Intracellular Arginase in Macrophages Isolated from Murine Bone Marrow—Bone Marrow Derived Macrophages (BMDM)
Materials & Methods: The assay was performed according to modified literature protocol modification (Pineda-Torra I et al., Methods Mol Biol. 2015; 1339:101-9. Mia S et al. Scand J Immunol. 2014 May; 79(5):305-14). The femurs and tibias were isolated from Balb/c mice. Bones were cleaned from all attached tissues by using sterile swab without affecting the bone structure. Bones were sterilized by immersion in 70% ethanol for 5 min and then rinsed in PBS. The sides of the bones were cut off and flush with cold sterile PBS by using 26-G needle S into a 50 mL sterile tube with a cell strainer (Falcon™, Cat. No. U00149), until bone cavity appeared white. Then the cells were centrifuged (5 min at 500×G, 4° C.), washed twice with PBS and counted. Cells were plated in Petri dish in density of 1×10^6/mL and cultured in DMEM (Gibco, Cat. No. 31331-029) with 10% FBS, 1% pen-strep and 50 ng/mL M-CSF (PeproTech, Cat. No. 315-02), (37° C., 5% CO2). After five days cells were subcultured into P96 plate (BD, Cat. No. 353072) in density of 64 000 cells/well in medium supplemented with 50 ng/mL M-CSF and 20 ng/mL IL-4 (Biomibo Cat. No. 214-1). One day later exemplary compounds (dissolved in PBS) were added in several different concentrations and 24 hours later the level of urea was measured in each well (Jung D et al., Clin Chem. 1975, 21(8):1136-40). The concentration of urea in the absence of any compound was considered as the maximum. The absorbance of cell culture media (background) was subtracted from all the values.
For selected examples the activity class for ARG2 was estimated based on % of inhibition for 1 μM and 100 μM concentration of tested compounds.

For `N[C@]1(C(=O)O)C[C@H](CCB(O)O)CC[C@H]1CN1CCCCC1` [Example 70, (1R,2S,5R)-1-amino-5-(2-boronoethyl)-2-(piperidin-1-ylmethyl)cyclohexane-1-carboxylic acid], the IC50 in assay [1] is 1 to 100 nM; in assay [2], 100 to 1000 nM; in assay [3] it was 1 to 100 nM.
Take `N[C@]1(C(=O)O)C[C@H](CCB(O)O)CC[C@H]1CN1CCCC1` [Example 71, (1R,2S,5R)-1-amino-5-(2-boronoethyl)-2-(pyrrolidin-1-ylmethyl)cyclohexane-1-carboxylic acid]: the IC50 in assay [1], in assay [2] and in assay [3] was 1 to 100 nM in each case.
